Like-named read-outs stand apart in the source and are kept apart here. Numbered stars: 1 amine (or outer) side, 2 acyl side, 3 side chain; on linkers, the order of the positions; unused ones are H or OH. Bridge positions count the residues as written; N and C are the ends. Square brackets hold non-standard residues; d marks the D form. Peptide text beside a SMILES is read from it. * marks the point of attachment. C20 diacid = O=C(O)CCCCCCCCCCCCCCCCCCC(=O)*; Pro(4R-NH2) = N[C@H]1CN[C@H](C(=O)O)C1; γGlu = O=C(O)[C@H](CCC(=O)[*:2])N[*:1]; NMeI = CC[C@H](C)[C@H](NC)C(=O)O; Aze = O=C(O)[C@@H]1CCN1; Sar = CNCC(=O)O
What was measured:
[1] = molecular target: T1, human amylin receptor 3 (hAMYR3) consisting of hCTR2 co-expressed with human Receptor Activity Modifying Protein 3 (hRAMP3) (Homo sapiens, UniProt O60896+P30988); test: hAMYR3 assay: induction of cAMP (AlphaScreen cAMP Assay kit) in COS7 cells expressing hAMYR3; type: cell-based
T1 construct: expressed in transfected cells
T1 sequence (P30988 25-474): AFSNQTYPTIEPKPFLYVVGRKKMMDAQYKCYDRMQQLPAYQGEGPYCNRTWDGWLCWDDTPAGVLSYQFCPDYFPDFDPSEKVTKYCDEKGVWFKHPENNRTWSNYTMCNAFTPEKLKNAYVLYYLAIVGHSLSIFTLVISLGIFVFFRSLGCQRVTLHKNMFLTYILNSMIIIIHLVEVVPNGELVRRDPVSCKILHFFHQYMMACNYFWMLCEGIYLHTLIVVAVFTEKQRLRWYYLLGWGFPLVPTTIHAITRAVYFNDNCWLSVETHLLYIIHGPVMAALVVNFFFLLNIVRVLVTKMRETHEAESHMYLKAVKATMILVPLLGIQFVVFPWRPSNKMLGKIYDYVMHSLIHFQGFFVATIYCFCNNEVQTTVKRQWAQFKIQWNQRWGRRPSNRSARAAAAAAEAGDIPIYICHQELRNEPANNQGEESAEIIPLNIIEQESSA
T1 sequence (O60896 24-148 partner): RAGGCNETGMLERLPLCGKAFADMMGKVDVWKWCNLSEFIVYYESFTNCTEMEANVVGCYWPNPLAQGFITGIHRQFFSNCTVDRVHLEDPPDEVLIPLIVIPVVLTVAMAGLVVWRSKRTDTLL
In short: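 cAMP accumulation read by AlphaScreen in lysates of RAMP-naive COS7 cells stably transfected with hCTR2 plus hRAMP3. Cells exposed to peptide dilutions for 15 min, 37° C, with 100 µM IBMX; 4PL fitting gave EC50 and efficacy relative to pramlintide.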

[2] = Assessment of physical stability: fibril formation detected with Thioflavin T (ThT), lag-time; type: physicochemical; details: 1 mg/ml peptide, 40 µM ThT, FND = Fibrillation not detected; for Fibrillation lag time (hours) pH 4.0 (Ac): 50 mM acetate buffer pH 4.0, 96 hours at 40°C; for Fibrillation lag time (hours) pH 7.0 (His): 50 mM histidine buffer pH 7.0, 96 hours at 40°C; for Fibrillation lag time (hours) pH 7.0 (Ph): 50 mM phosphate buffer pH 7.0, 96 hours at 40°C
In short: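 Test peptide at 1 mg/ml with 40 µM ThT in 50 mM phosphate (pH 7.0), 50 mM histidine (pH 7.0) or 50 mM acetate (pH 4.0), in triplicate, 40° C. for 96 h. Fluorescence read every 10 min after 300 s agitation. Lag-time (h) taken as intersection of linear fits to initial stable and growth phases.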

[3] = cAMP induction in COS7 cells expressing hAMYR3, average of a minimum of 3 determinations, read-out: hAMY R3 EC50

Row | SMILES | EC50 [1] [nM] | Fibrillation lag time (hours) pH 4.0 (Ac) [2] | Fibrillation lag time (hours) pH 7.0 (His) [2] | Fibrillation lag time (hours) pH 7.0 (Ph) [2] | EC50 [1, 3] [nM]
1 | CC[C@H](C)[C@@H](C(=O)N[C@@H](CC(C)C)C(=O)N[C@@H](CO)C(=O)N[C@@H](CO)C(=O)N[C@H](C(=O)N[C@@H](CC(N)=O)C(=O)N[C@H](C(=O)NCC(=O)N[C@@H](CO)C(=O)N[C@@H](CC(N)=O)C(=O)N[C@H](C(=O)N1CC[C@H]1C(N)=O)[C@@H](C)O)C(C)C)[C@@H](C)O)N(C)C(=O)[C@H](C)NC(=O)CN(C)C(=O)[C@H](Cc1ccccc1)NC(=O)[C@H](CC(N)=O)NC(=O)[C@H](CC(N)=O)NC(=O)[C@H](CO)NC(=O)[C@H](CO)NC(=O)[C@H](CCCNC(=N)N)NC(=O)[C@H](Cc1c[nH]cn1)NC(=O)[C@H](CC(C)C)NC(=O)[C@H](Cc1ccccc1)NC(=O)[C@H](CCC(=O)O)NC(=O)[C@H](C)NC(=O)[C@H](CC(C)C)NC(=O)[C@H](CCCNC(=N)N)NC(=O)[C@H](CCC(N)=O)NC(=O)[C@@H](NC(=O)[C@H](C)NC(=O)[C@@H]1CSSC[C@H](NC(=O)[C@H](CCCNC(=N)N)NC(=O)CC[C@H](NC(=O)CCCCCCCCCCCCCCCCCCC(=O)O)C(=O)O)C(=O)N[C@@H](CC(N)=O)C(=O)N[C@@H]([C@@H](C)O)C(=O)N[C@@H](C)C(=O)N[C@@H]([C@@H](C)O)C(=O)N1)[C@@H](C)O [Compound 107, [19CD]-isoGlu-RC()NTATC()ATQRLAEFLHRSSNNF-Gly(Me)-A-Ile(Me)-LSSTNVGSNT-Aze-NH2] ({C20 diacid-γGlu}-RCNTATCATQRLAEFLHRSSNNF[Sar]A[NMeI]LSSTNVGSNT[Aze]-NH2; disulfide 2-7) | 0.52 | FND | FND | 16 hours | –
2 | CC[C@H](C)[C@@H](C(=O)N[C@@H](CC(C)C)C(=O)N[C@@H](CO)C(=O)N[C@@H](CO)C(=O)N[C@H](C(=O)N[C@@H](CC(N)=O)C(=O)N[C@H](C(=O)NCC(=O)N[C@@H](CO)C(=O)N[C@@H](CC(N)=O)C(=O)N[C@H](C(=O)N1C[C@H](N)C[C@H]1C(N)=O)[C@@H](C)O)C(C)C)[C@@H](C)O)N(C)C(=O)[C@H](C)NC(=O)CN(C)C(=O)[C@H](Cc1ccccc1)NC(=O)[C@H](CC(N)=O)NC(=O)[C@H](CC(N)=O)NC(=O)[C@H](CO)NC(=O)[C@H](CO)NC(=O)[C@H](CCCNC(=N)N)NC(=O)[C@H](Cc1c[nH]cn1)NC(=O)[C@H](CC(C)C)NC(=O)[C@H](Cc1ccccc1)NC(=O)[C@H](CCC(=O)O)NC(=O)[C@H](C)NC(=O)[C@H](CC(C)C)NC(=O)[C@H](CCCNC(=N)N)NC(=O)[C@H](CCC(N)=O)NC(=O)[C@@H](NC(=O)[C@H](C)NC(=O)[C@@H]1CSSC[C@H](NC(=O)[C@H](CCCNC(=N)N)NC(=O)CC[C@H](NC(=O)CCCCCCCCCCCCCCCCCCC(=O)O)C(=O)O)C(=O)N[C@@H](CC(N)=O)C(=O)N[C@@H]([C@@H](C)O)C(=O)N[C@@H](C)C(=O)N[C@@H]([C@@H](C)O)C(=O)N1)[C@@H](C)O [Compound 110, [19CD]-isoGlu-RC()NTATC()ATQRLAEFLHRSSNNF-Gly(Me)-A-Ile(Me)-LSSTNVGSNT-Apr-NH2] ({C20 diacid-γGlu}-RCNTATCATQRLAEFLHRSSNNF[Sar]A[NMeI]LSSTNVGSNT[Pro(4R-NH2)]-NH2; disulfide 2-7) | 0.087 | FND | FND | FND | –
3 | CC[C@H](C)[C@@H](C(=O)N[C@@H](CC(C)C)C(=O)N[C@@H](CO)C(=O)N[C@@H](CO)C(=O)N[C@H](C(=O)N[C@@H](CCC(=O)O)C(=O)N[C@H](C(=O)NCC(=O)N[C@@H](CO)C(=O)N[C@@H](CCC(=O)O)C(=O)N[C@H](C(=O)N1CCC[C@H]1C(N)=O)[C@@H](C)O)C(C)C)[C@@H](C)O)N(C)C(=O)[C@H](C)NC(=O)CN(C)C(=O)[C@H](Cc1ccccc1)NC(=O)[C@H](CO)NC(=O)[C@H](CO)NC(=O)[C@H](CO)NC(=O)[C@H](CO)NC(=O)[C@H](CCCNC(=N)N)NC(=O)[C@H](Cc1c[nH]cn1)NC(=O)[C@H](CC(C)C)NC(=O)[C@H](Cc1ccccc1)NC(=O)[C@H](CCC(=O)O)NC(=O)[C@H](C)NC(=O)[C@H](CC(C)C)NC(=O)[C@H](CCCNC(=N)N)NC(=O)[C@H](C)NC(=O)[C@@H](NC(=O)[C@H](C)NC(=O)[C@@H]1CSSC[C@H](NC(=O)[C@H](CCCNC(=N)N)NC(=O)CC[C@H](NC(=O)CCCCCCCCCCCCCCCCCCC(=O)O)C(=O)O)C(=O)N[C@@H](CC(N)=O)C(=O)N[C@@H]([C@@H](C)O)C(=O)N[C@@H](C)C(=O)N[C@@H]([C@@H](C)O)C(=O)N1)[C@@H](C)O [Compound 118, [19CD]-isoGlu-RC()NTATC()ATARLAEFLHRSSSSF-Gly(Me)-A-Ile(Me)-LSSTEVGSETP-NH2] ({C20 diacid-γGlu}-RCNTATCATARLAEFLHRSSSSF[Sar]A[NMeI]LSSTEVGSETP-NH2; disulfide 2-7) | – | FND | FND | FND | 0.12
4 | CC[C@H](C)[C@@H](C(=O)N[C@@H](CC(C)C)C(=O)N[C@@H](CO)C(=O)N[C@@H](CO)C(=O)N[C@H](C(=O)N[C@@H](CCC(=O)O)C(=O)N[C@H](C(=O)NCC(=O)N[C@@H](CO)C(=O)N[C@@H](CCC(=O)O)C(=O)N[C@H](C(=O)N1CCC[C@H]1C(N)=O)[C@@H](C)O)C(C)C)[C@@H](C)O)N(C)C(=O)[C@H](C)NC(=O)CN(C)C(=O)[C@H](Cc1ccccc1)NC(=O)[C@H](CO)NC(=O)[C@H](CO)NC(=O)[C@H](CO)NC(=O)[C@H](CO)NC(=O)[C@H](CCCNC(=N)N)NC(=O)[C@H](Cc1c[nH]cn1)NC(=O)[C@H](CC(C)C)NC(=O)[C@H](Cc1ccccc1)NC(=O)[C@H](CCC(=O)O)NC(=O)[C@H](C)NC(=O)[C@H](CC(C)C)NC(=O)[C@H](CCCNC(=N)N)NC(=O)[C@H](CC(=O)O)NC(=O)[C@@H](NC(=O)[C@H](C)NC(=O)[C@@H]1CSSC[C@H](NC(=O)[C@H](CCCNC(=N)N)NC(=O)CC[C@H](NC(=O)CCCCCCCCCCCCCCCCCCC(=O)O)C(=O)O)C(=O)N[C@@H](CC(N)=O)C(=O)N[C@@H]([C@@H](C)O)C(=O)N[C@@H](C)C(=O)N[C@@H]([C@@H](C)O)C(=O)N1)[C@@H](C)O [Compound 120, [19CD]-isoGlu-RC()NTATC()ATDRLAEFLHRSSSSF-Gly(Me)-A-Ile(Me)-LSSTEVGSETP-NH2] ({C20 diacid-γGlu}-RCNTATCATDRLAEFLHRSSSSF[Sar]A[NMeI]LSSTEVGSETP-NH2; disulfide 2-7) | 0.15 | FND | FND | FND | –
5 | CC[C@H](C)[C@@H](C(=O)N[C@@H](CC(C)C)C(=O)N[C@@H](CO)C(=O)N[C@@H](CO)C(=O)N[C@H](C(=O)N[C@@H](CCC(=O)O)C(=O)N[C@H](C(=O)NCC(=O)N[C@@H](CO)C(=O)N[C@@H](CCC(=O)O)C(=O)N[C@H](C(=O)N1CCC[C@H]1C(N)=O)[C@@H](C)O)C(C)C)[C@@H](C)O)N(C)C(=O)[C@H](C)NC(=O)CN(C)C(=O)[C@H](Cc1ccccc1)NC(=O)[C@H](CO)NC(=O)[C@H](CO)NC(=O)[C@H](CO)NC(=O)[C@H](CO)NC(=O)[C@H](CCCNC(=N)N)NC(=O)[C@H](Cc1c[nH]cn1)NC(=O)[C@H](CC(C)C)NC(=O)[C@H](Cc1ccccc1)NC(=O)[C@H](CCC(=O)O)NC(=O)[C@H](C)NC(=O)[C@H](CC(C)C)NC(=O)[C@H](CCCNC(=N)N)NC(=O)[C@H](CCC(=O)O)NC(=O)[C@@H](NC(=O)[C@H](C)NC(=O)[C@@H]1CSSC[C@H](NC(=O)[C@H](CCCNC(=N)N)NC(=O)CC[C@H](NC(=O)CCCCCCCCCCCCCCCCCCC(=O)O)C(=O)O)C(=O)N[C@@H](CCC(=O)O)C(=O)N[C@@H]([C@@H](C)O)C(=O)N[C@@H](C)C(=O)N[C@@H]([C@@H](C)O)C(=O)N1)[C@@H](C)O [Compound 134, [19CD]-isoGlu-RC()ETATC()ATERLAEFLHRSSSSF-Gly(Me)-A-Ile(Me)-LSSTEVGSETP-NH2] ({C20 diacid-γGlu}-RCETATCATERLAEFLHRSSSSF[Sar]A[NMeI]LSSTEVGSETP-NH2; disulfide 2-7) | – | FND | FND | FND | 0.65

From patent publication EP3046573B1, “AMYLIN ANALOGUES” (Zealand Pharma A/S, priority 2013, dated 2015)
